Reference: paper PMC10674160, “Synthesis and Preclinical Evaluation of Radiolabeled [^103Ru]BOLD-100” (Pharmaceutics, 2023)

Test: Tissue distribution in CT26 allograft bearing Balb/c mice (ICP-MS for 3a, gamma counting for 3b)
Format: in vivo
Protocol: UV/Vis spectra were recorded on a Hitachi U-2000 Dual Beam spectrophotometer. Sample activities were measured on an ISOMED 2010 dose calibrator. For centrifugation during synthesis, a Fisherbrand^TM Mini-Centrifuge from Fisher Scientific was used. Radioactive organ samples were measured on Perkin Elmer Wizard^2 gamma counter. Non-radioactive organ samples were prepared, and the ruthenium content was quantified with ICP-MS. The exact procedure including instrument information can be found in the Supplementary Materials.
For the evaluation of organ distribution, CT26 cells (5 × 10^5 in serum-free medium) were injected subcutaneously into the right flank of Balb/c mice. Animals were controlled for distress development every day and tumor size was assessed regularly using caliper measurements. CT26 cells were inoculated 10 days prior to drug application. Tumor volume was calculated using the formula: (length × width^2); the tumors reached a size of about 500 mm^3. Animals were treated once intravenously (i.v.) via tail-vein injection with 3a or 3b at a dose of 30 mg/kg (dissolved in 0.9% NaCl, 0.6 mg/100 µL/20 g mouse) and a specific activity of 0.64–1.36 MBq/mg for compound 3b. The mice were anesthetized and sacrificed by cervical fracture 4, 24, 48 and 72 h p.i., with n ≥ 2 (3a) and n ≥ 3 (3b) for each time point. Samples of tumor, liver, kidney, muscle, heart, lung, spleen, pancreas, stomach, colon, small intestine, brain, bone, and blood were collected from each mouse. After clotting at RT, serum was isolated from the collected blood samples by centrifugation at 3000 rpm for 10 min twice and stored together with the collected tissue samples at −20 °C. Finally, the ruthenium content was quantified by ICP-MS in the case of the non-radioactive BOLD-100 (3a) and via gamma counting for [^103Ru]BOLD-100 (3b).
An Agilent 7800 ICP-MS (Agilent Technologies, Tokyo, Japan) was being employed, which was equipped with an Agilent SPS 4 autosampler (Agilent Technologies, Tokyo, Japan) and a MicroMist nebulizer at a sample uptake rate of approx. 0.2 mL/min. The Agilent MassHunter software package (Workstation Software, Version C.01.04, 2018) was used for data evaluation. The instrumental parameters […]
Reference source not found..
Ta ble S1: Instrumental parameters for the ICP-MS measurements […]
Spray chamber Scott double-pass
Spraying chamber temp. 2°C
Nebulizer gas 1.06 L min−1
Auxiliary gas 0.90 L min−1
The instrumental limit of quantification (LOQ) was determined at the start of the measurement by […]
LOQ = blank average + 10*STD
Blank corrections were performed for all the samples. Robustness was ensured by tuning the ICP-MS on a daily basis, by using an internal standard (115In) and measuring calibration standards for each […]
Ultrapure water (18.2 MΩ cm, ELGA Water purification system, Purelab Ultra MK 2, UK or 18.2 MΩ cm, Milli-Q Advantage, Darmstadt, Germany), HNO3 (≥69%, Rotipuran Supra, Carl Roth, Karlsruhe, Germany) and H2O2 (30%, Suprapur, Merck, Darmstadt, Germany) were used for all dilutions for ICP-MS measurements. The Ru standard solution was purchased from Labkings (Hilversum, The Netherlands).
For the digestion, approx. 25–50 mg of each organ sample were weighed into PFA-tubes, with 2 mL HNO3 and 100 µL H2O2 being added. The solutions were then placed on a hot plate and heated up for 6 hours using a temperature program with a maximum temperature of 200 °C. After cooling down, the liquids were transferred directly to 15 mL tubes with the remaining solution being removed from the PFA tubes by washing twice with 4 mL ultrapure water, resulting in a final volume of about 10 mL. By writing down the total weight of the resulting liquid, the dilution factor could be calculated.

[1] = Tumor, 24 h p.i., 30 mg/kg i.v.

With `[Cl][Ru]([Cl])([Cl])[Cl].[Na+].c1ccc2[nH]ncc2c1.c1ccc2[nH]ncc2c1` [3b, [^103Ru]sodium trans-[tetrachloridobis(indazole)ruthenate(III)]] the “tumor/organ ratio Blood cells” value (Blood cells, 4 h) was 0.4 ± 0.1, the “%ID/g tissue Blood cells” value (Blood cells, 4 h p.i., 30 mg/kg i.v.) was 11.98 ± 2.26 %ID/g tissue and the “%ID/g tissue Blood cells” value (Blood cells, 24 h p.i., 30 mg/kg i.v.) was 3.41 ± 0.97 %ID/g tissue. The “%ID/g tissue Blood cells” value (Blood cells, 48 h p.i., 30 mg/kg i.v.) was 2.94 ± 1.32 %ID/g tissue, the “%ID/g tissue Blood cells” value (Blood cells, 72 h p.i., 30 mg/kg i.v.) was 2.19 ± 0.96 %ID/g tissue and the “tumor/organ ratio Bones” value (4 h) was 3.4 ± 0.5. The “%ID/g tissue Bones” value (4 h p.i., 30 mg/kg i.v.) was 1.34 ± 0.30 %ID/g tissue, the “tumor/organ ratio Bones” value (24 h) was 5.4 ± 0.6 and the “%ID/g tissue Bones” value (24 h p.i., 30 mg/kg i.v.) was 1.19 ± 0.29 %ID/g tissue. For the same molecule, the “tumor/organ ratio Bones” value (48 h) was 7.0 ± 0.8, the “%ID/g tissue Bones” value (48 h p.i., 30 mg/kg i.v.) was 0.90 ± 0.24 %ID/g tissue and the “tumor/organ ratio Bones” value (72 h) was 4.9 ± 1.7. For the same molecule, the “%ID/g tissue Bones” value (72 h p.i., 30 mg/kg i.v.) was 1.00 ± 0.15 %ID/g tissue, the “tumor/organ ratio Brain” value (4 h) was 10.7 ± 3.3 and the “%ID/g tissue Brain” value (4 h p.i., 30 mg/kg i.v.) was 0.46 ± 0.20 %ID/g tissue. For the same molecule, the “tumor/organ ratio Brain” value (24 h) was 51.9 ± 4.4, the “%ID/g tissue Brain” value (24 h p.i., 30 mg/kg i.v.) was 0.12 ± 0.02 %ID/g tissue and the “tumor/organ ratio Brain” value (48 h) was 53.3 ± 14.3. The “%ID/g tissue Brain” value (48 h p.i., 30 mg/kg i.v.) was 0.13 ± 0.05 %ID/g tissue, the “tumor/organ ratio Brain” value (72 h) was 54.3 ± 15.1 and the “%ID/g tissue Brain” value (72 h p.i., 30 mg/kg i.v.) was 0.09 ± 0.05 %ID/g tissue. For the same molecule, the “%ID/g tissue Colon” value (4 h p.i., 30 mg/kg i.v.) was 3.89 ± 0.96 %ID/g tissue, the “%ID/g tissue Colon” value (24 h p.i., 30 mg/kg i.v.) was 1.88 ± 0.37 %ID/g tissue and the “%ID/g tissue Colon” value (48 h p.i., 30 mg/kg i.v.) was 2.34 ± 0.72 %ID/g tissue. The “%ID/g tissue Colon” value (72 h p.i., 30 mg/kg i.v.) was 2.19 ± 0.77 %ID/g tissue, the “tumor/organ ratio Fat” value (4 h) was 5.1 ± 2.1 and the “tumor/organ ratio Fat” value (24 h) was 10.3 ± 2.1. For the same molecule, the “tumor/organ ratio Fat” value (48 h) was 13.3 ± 5.0, the “tumor/organ ratio Fat” value (72 h) was 8.6 ± 3.5 and the “tumor/organ ratio Heart” value (4 h) was 0.8 ± 0.2. The “%ID/g tissue Heart” value (4 h p.i., 30 mg/kg i.v.) was 5.93 ± 1.10 %ID/g tissue, the “tumor/organ ratio Heart” value (24 h) was 2.0 ± 0.2 and the “%ID/g tissue Heart” value (24 h p.i., 30 mg/kg i.v.) was 3.24 ± 0.73 %ID/g tissue. The “tumor/organ ratio Heart” value (48 h) was 2.1 ± 0.2, the “%ID/g tissue Heart” value (48 h p.i., 30 mg/kg i.v.) was 2.98 ± 0.41 %ID/g tissue and the “tumor/organ ratio Heart” value (72 h) was 1.5 ± 0.4. The “%ID/g tissue Heart” value (72 h p.i., 30 mg/kg i.v.) was 3.12 ± 0.84 %ID/g tissue, the “tumor/organ ratio Kidneys” value (4 h) was 0.4 ± 0.1 and the “%ID/g tissue Kidneys” value (4 h p.i., 30 mg/kg i.v.) was 12.98 ± 2.87 %ID/g tissue. The “tumor/organ ratio Kidneys” value (24 h) was 0.5 ± 0.1, the “%ID/g tissue Kidneys” value (24 h p.i., 30 mg/kg i.v.) was 12.55 ± 0.74 %ID/g tissue and the “tumor/organ ratio Kidneys” value (48 h) was 0.5 ± 0.1. The “%ID/g tissue Kidneys” value (48 h p.i., 30 mg/kg i.v.) was 11.79 ± 2.66 %ID/g tissue, the “%ID/g tissue Kidneys” value (72 h p.i., 30 mg/kg i.v.) was 13.14 ± 5.56 %ID/g tissue and the “tumor/organ ratio Liver” value (4 h) was 0.2 ± 0.2. For the same molecule, the “%ID/g tissue Liver” value (4 h p.i., 30 mg/kg i.v.) was 24.41 ± 3.17 %ID/g tissue, the “tumor/organ ratio Liver” value (24 h) was 0.5 ± 0.1 and the “%ID/g tissue Liver” value (24 h p.i., 30 mg/kg i.v.) was 13.83 ± 3.38 %ID/g tissue. For the same molecule, the “tumor/organ ratio Liver” value (48 h) was 0.4 ± 0.1, the “%ID/g tissue Liver” value (48 h p.i., 30 mg/kg i.v.) was 14.54 ± 2.69 %ID/g tissue and the “tumor/organ ratio Liver” value (72 h) was 0.4 ± 0.1. The “%ID/g tissue Liver” value (72 h p.i., 30 mg/kg i.v.) was 12.26 ± 2.85 %ID/g tissue, the “%ID/g tissue Lung” value (4 h p.i., 30 mg/kg i.v.) was 9.77 ± 1.75 %ID/g tissue and the “%ID/g tissue Lung” value (24 h p.i., 30 mg/kg i.v.) was 5.89 ± 3.04 %ID/g tissue. For the same molecule, the “%ID/g tissue Lung” value (48 h p.i., 30 mg/kg i.v.) was 5.08 ± 1.93 %ID/g tissue, the “%ID/g tissue Lung” value (72 h p.i., 30 mg/kg i.v.) was 4.47 ± 2.10 %ID/g tissue and the “%ID/g tissue Muscle” value (4 h p.i., 30 mg/kg i.v.) was 1.05 ± 0.14 %ID/g tissue. The “%ID/g tissue Muscle” value (24 h p.i., 30 mg/kg i.v.) was 0.57 ± 0.19 %ID/g tissue, the “%ID/g tissue Muscle” value (48 h p.i., 30 mg/kg i.v.) was 0.60 ± 0.16 %ID/g tissue and the “%ID/g tissue Muscle” value (72 h p.i., 30 mg/kg i.v.) was 0.65 ± 0.17 %ID/g tissue. For the same molecule, the “%ID/g tissue Pancreas” value (4 h p.i., 30 mg/kg i.v.) was 3.75 ± 1.07 %ID/g tissue, the “%ID/g tissue Pancreas” value (24 h p.i., 30 mg/kg i.v.) was 1.74 ± 0.39 %ID/g tissue and the “%ID/g tissue Pancreas” value (48 h p.i., 30 mg/kg i.v.) was 2.50 ± 1.33 %ID/g tissue. The “%ID/g tissue Pancreas” value (72 h p.i., 30 mg/kg i.v.) was 2.01 ± 0.75 %ID/g tissue, the “tumor/organ ratio Serum” value (4 h) was 0.2 ± 0.0 and the “%ID/g tissue Serum” value (4 h p.i., 30 mg/kg i.v.) was 28.02 ± 4.87 %ID/g tissue. The “tumor/organ ratio Serum” value (24 h) was 0.8 ± 0.1, the “%ID/g tissue Serum” value (24 h p.i., 30 mg/kg i.v.) was 8.57 ± 3.37 %ID/g tissue and the “tumor/organ ratio Serum” value (48 h) was 1.3 ± 0.4. For the same molecule, the “%ID/g tissue Serum” value (48 h p.i., 30 mg/kg i.v.) was 5.31 ± 2.78 %ID/g tissue, the “tumor/organ ratio Serum” value (72 h) was 1.4 ± 0.3 and the “%ID/g tissue Serum” value (72 h p.i., 30 mg/kg i.v.) was 3.63 ± 1.78 %ID/g tissue. For the same molecule, the “%ID/g tissue Small intestine” value (4 h p.i., 30 mg/kg i.v.) was 5.49 ± 1.12 %ID/g tissue, the “%ID/g tissue Small intestine” value (24 h p.i., 30 mg/kg i.v.) was 2.49 ± 0.76 %ID/g tissue and the “%ID/g tissue Small intestine” value (48 h p.i., 30 mg/kg i.v.) was 2.54 ± 0.95 %ID/g tissue. For the same molecule, the “%ID/g tissue Small intestine” value (72 h p.i., 30 mg/kg i.v.) was 1.92 ± 0.47 %ID/g tissue, the “%ID/g tissue Spleen” value (4 h p.i., 30 mg/kg i.v.) was 4.63 ± 0.61 %ID/g tissue and the “%ID/g tissue Spleen” value (24 h p.i., 30 mg/kg i.v.) was 3.92 ± 0.66 %ID/g tissue. The “%ID/g tissue Spleen” value (48 h p.i., 30 mg/kg i.v.) was 6.01 ± 2.98 %ID/g tissue, the “%ID/g tissue Spleen” value (72 h p.i., 30 mg/kg i.v.) was 5.08 ± 1.56 %ID/g tissue and the “%ID/g tissue Stomach” value (4 h p.i., 30 mg/kg i.v.) was 2.88 ± 0.82 %ID/g tissue. For the same molecule, the “%ID/g tissue Stomach” value (24 h p.i., 30 mg/kg i.v.) was 1.34 ± 0.22 %ID/g tissue, the “%ID/g tissue Stomach” value (48 h p.i., 30 mg/kg i.v.) was 1.60 ± 0.36 %ID/g tissue and the “%ID/g tissue Stomach” value (72 h p.i., 30 mg/kg i.v.) was 1.69 ± 0.64 %ID/g tissue. The “%ID/g tissue Tumor” value (Tumor, 4 h p.i., 30 mg/kg i.v.) was 4.49 ± 1.03 %ID/g tissue, the “%ID/g tissue Tumor” value [1] was 6.39 ± 1.44 %ID/g tissue and the “tumor uptake (highest level)” value [1] was 6.4 %ID/g. For the same molecule, the “%ID/g tissue Tumor” value (Tumor, 48 h p.i., 30 mg/kg i.v.) was 6.19 ± 1.26 %ID/g tissue and the “%ID/g tissue Tumor” value (Tumor, 72 h p.i., 30 mg/kg i.v.) was 4.77 ± 1.68 %ID/g tissue.
